Data as given in patent US6737383B1, “Herbicidal oxadiazolidines” (priority 1999, dated 2004).

Assays:
surinam grass = experiment: Test B pre/postemergence surinam grass; assay type: in vivo, Brachiaria decumbens
Summary of the method: (§1)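 Test chemicals in a non-phytotoxic solvent mixture with surfactant were sprayed preemergence onto planted seeds and postemergence onto plants 2 to 18 cm tall (1- to 4-leaf stage). After twelve to sixteen days in a greenhouse, injury was visually rated against untreated controls from 0 (no effect) to 10 (complete control).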

pigweed = experiment: Test B pre/postemergence pigweed; assay type: in vivo, Amaranthus retroflexus
Summary of the method: as §1

rice = experiment: Test B flood test rice; assay type: in vivo, Oryza sativa
Summary of the method: (§2)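 Plants were grown to the 2-leaf stage before treatment with test chemical, then held in a greenhouse for twelve to sixteen days. Injury was visually rated against untreated controls on a 0–10 scale, where 0 is no effect and 10 is complete control.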

smallflower flatsedge = experiment: Test B flood test smallflower flatsedge; assay type: in vivo, Cyperus difformis
Summary of the method: as §2

wild oat = experiment: Test B pre/postemergence wild oat; assay type: in vivo, Avena fatua
Summary of the method: as §1

velvetleaf = experiment: Test B pre/postemergence velvetleaf; assay type: in vivo, Abutilon theophrasti
Summary of the method: as §1

corn = experiment: Test B pre/postemergence corn; assay type: in vivo, Zea mays
Summary of the method: as §1

cocklebur = experiment: Test B pre/postemergence cocklebur; assay type: in vivo, Xanthium strumarium
Summary of the method: as §1

duck salad = experiment: Test B flood test duck salad; assay type: in vivo, Heteranthera limosa
Summary of the method: as §2

wheat = experiment: Test B pre/postemergence wheat; assay type: in vivo, Triticum aestivum
Summary of the method: as §1

morningglory = experiment: Test B pre/postemergence morningglory; assay type: in vivo, Ipomoea hederacea
Summary of the method: as §1

purple nutsedge = experiment: Test B pre/postemergence purple nutsedge; assay type: in vivo, Cyperus rotundus
Summary of the method: as §1

giant foxtail = experiment: Test B pre/postemergence giant foxtail; assay type: in vivo, Setaria faberii
Summary of the method: as §1

sugar beet = experiment: Test B pre/postemergence sugar beet; assay type: in vivo, Beta vulgaris
Summary of the method: as §1

rape = experiment: Test B pre/postemergence rape; assay type: in vivo, Brassica napus
Summary of the method: as §1

crabgrass = experiment: Test B pre/postemergence crabgrass; assay type: in vivo, Digitaria sanguinalis
Summary of the method: as §1

bamyardgrass = experiment: Test B flood test barnyardgrass; assay type: in vivo, Echinochloa crus-galli
Summary of the method: as §2

bedstraw = experiment: Test B pre/postemergence bedstraw; assay type: in vivo, Galium aparine; settings: Preemergence; for Bedstraw plant response rating: scale of 0 to 10 where 0 is no effect and 10 is complete control
Summary of the method: as §1

soybean = experiment: Test B pre/postemergence soybean; assay type: in vivo, Glycine max
Summary of the method: as §1

blackgrass = experiment: Test B pre/postemergence blackgrass; assay type: in vivo, Alopecurus myosuroides
Summary of the method: as §1

[1] = Postemergence, Rate 125 g/ha, scale of 0 to 10 where 0 is no effect and 10 is complete control
[2] = Postemergence, Rate 250 g/ha, scale of 0 to 10, 0 is no effect, 10 is complete control
[3] = Postemergence, Rate 500 g/ha, scale of 0 to 10 where 0 is no effect and 10 is complete control
[4] = Postemergence, Rate 1000 g/ha, scale 0 to 10 (0 no effect, 10 complete control)
[5] = Preemergence, Rate 125 g/ha, scale of 0 to 10 where 0 is no effect and 10 is complete control
[6] = Preemergence, Rate 500 g/ha, scale of 0 to 10 where 0 is no effect and 10 is complete control
[7] = Rate 1000 g/ha, Preemergence, scale 0 to 10 (0 no effect, 10 complete control)
[8] = Pre-emergence, Rate 1000 g/ha, scale 0 to 10 (0 no effect, 10 complete control)
[9] = Rate 125 g/ha, under heading Pre-emergence, flood test species, visual evaluation after twelve to sixteen days
[10] = Rate 250 g/ha, Pre-emergence (flood test species), scale 0 to 10, 0 is no effect, 10 is complete control
[11] = Rate 500 g/ha, Pre-emergence section of Table B, 0 to 10 scale (0 no effect, 10 complete control)

CCOP(=O)(Cn1c(=O)on(C(=O)N(c2ccc(Cl)cc2)C(C)C)c1=O)OCC [Compound 599]
0: Plant response rating, B. signalgrass (surinam grass; [1]) | B. signalgrass plant response rating (surinam grass; [2]) | Plant response rating, B. signalgrass (surinam grass; [3]) | B. signalgrass plant response rating (surinam grass; [4]) | Plant response rating, Redroot pigweed (pigweed; [1]) | Redroot pigweed plant response rating (pigweed; [2]) | Plant response rating, Redroot pigweed (pigweed; [3]) | Redroot pigweed plant response rating (pigweed; [4]) | Redroot pigweed plant response rating (pigweed; [5]) | Plant response rating, Redroot pigweed (pigweed; [6]) | Rice plant response rating (rice; [8]) | Rice plant response rating (0 to 10 scale, 0 is no effect, 10 is complete control) (rice; [9]) | Rice plant response rating (rice; [10]) | Rice plant response rating (rice; [11]) | S. Flatsedge plant response rating (smallflower flatsedge; [8]) | S. Flatsedge plant response rating (0 to 10 scale, 0 is no effect, 10 is complete control) (smallflower flatsedge; [9]) | S. Flatsedge plant response rating (smallflower flatsedge; [10]) | S. Flatsedge plant response rating (smallflower flatsedge; [11]) | Plant response rating, Wild oats (wild oat; [1]) | Wild oats plant response rating (wild oat; [2]) | Plant response rating, Wild oats (wild oat; [3]) | Wild oats plant response rating (wild oat; [4]) | Wild oats plant response rating (wild oat; [5]) | Plant response rating, Wild oats (wild oat; [6]) | Plant response rating, Wild oats (wild oat; [7]) | Plant response rating, Velvetleaf (velvetleaf; [1]) | Velvetleaf plant response rating (velvetleaf; [2]) | Plant response rating, Velvetleaf (velvetleaf; [3]) | Velvetleaf plant response rating (velvetleaf; [5]) | Plant response rating, Velvetleaf (velvetleaf; [6]) | Plant response rating, Velvetleaf (velvetleaf; [7]) | Plant response rating, Corn (corn; [1]) | Corn plant response rating (corn; [2]) | Plant response rating, Corn (corn; [3]) | Corn plant response rating (corn; [4]) | Corn plant response rating (corn; [5]) | Corn plant response rating (0 to 10 scale) (corn; Preemergence, Rate 250 g/ha) | Plant response rating, Corn (corn; [6]) | Plant response rating, Corn (corn; [7]) | Plant response rating, Cocklebur (cocklebur; [1]) | Cocklebur plant response rating (cocklebur; [2]) | Plant response rating, Cocklebur (cocklebur; [3]) | Cocklebur plant response rating (cocklebur; [4]) | Cocklebur plant response rating (cocklebur; [5]) | Cocklebur plant response rating (0 to 10 scale) (cocklebur; Preemergence, Rate 250 g/ha) | Plant response rating, Cocklebur (cocklebur; [6]) | Ducksalad plant response rating (duck salad; [8]) | Ducksalad plant response rating (0 to 10 scale, 0 is no effect, 10 is complete control) (duck salad; [9]) | Ducksalad plant response rating (duck salad; [10]) | Ducksalad plant response rating (duck salad; [11]) | Plant response rating, Wheat (wheat; [1]) | Wheat plant response rating (wheat; [2]) | Plant response rating, Wheat (wheat; [3]) | Wheat plant response rating (wheat; [4]) | Wheat plant response rating (wheat; [5]) | Plant response rating, Wheat (wheat; [6]) | Plant response rating, Wheat (wheat; [7]) | Morningglory plant response rating (morningglory; [5]) | Plant response rating, Morningglory (morningglory; [6]) | Plant response rating, Morningglory (morningglory; [7]) | Plant response rating, Nutsedge (purple nutsedge; [3]) | Nutsedge plant response rating (purple nutsedge; [4]) | Nutsedge plant response rating (purple nutsedge; [5]) | Plant response rating, Nutsedge (purple nutsedge; [6]) | Plant response rating, Nutsedge (purple nutsedge; [7]) | Plant response rating, Giant foxtail (giant foxtail; [1]) | Giant foxtail plant response rating (giant foxtail; [2]) | Plant response rating, Giant foxtail (giant foxtail; [3]) | Plant response rating, Sugarbeets (sugar beet; [1]) | Sugarbeets plant response rating (sugar beet; [2]) | Plant response rating, Sugarbeets (sugar beet; [3]) | Sugarbeets plant response rating (sugar beet; [4]) | Sugarbeets plant response rating (sugar beet; [5]) | Plant response rating, Rape (rape; [1]) | Rape plant response rating (rape; [2]) | Plant response rating, Rape (rape; [3]) | Rape plant response rating (rape; [4]) | Rape plant response rating (rape; [5]) | Plant response rating, Rape (rape; [6]) | Plant response rating, Crabgrass (crabgrass; [1]) | Crabgrass plant response rating (crabgrass; [2]) | Plant response rating, Crabgrass (crabgrass; [3]) | Crabgrass plant response rating (crabgrass; [4]) | Barnyardgrass plant response rating (bamyardgrass; [8]) | Barnyardgrass plant response rating (0 to 10 scale, 0 is no effect, 10 is complete control) (bamyardgrass; [9]) | Barnyardgrass plant response rating (bamyardgrass; [10]) | Barnyardgrass plant response rating (bamyardgrass; [11]) | Bedstraw plant response rating (bedstraw; Rate 125 g/ha) | Bedstraw plant response rating (0 to 10 scale) (bedstraw; Rate 250 g/ha) | Bedstraw plant response rating (bedstraw; Rate 500 g/ha) | Soybean plant response rating (soybean; [5]) | Plant response rating, Soybean (soybean; [6]) | Plant response rating, Soybean (soybean; [7]) | Plant response rating, Blackgrass (blackgrass; [1]) | Blackgrass plant response rating (blackgrass; [2]) | Plant response rating, Blackgrass (blackgrass; [3]) | Blackgrass plant response rating (blackgrass; [5])
3: B. signalgrass plant response rating (surinam grass; [6]) | Plant response rating, B. signalgrass (surinam grass; [7]) | Velvetleaf plant response rating (velvetleaf; [4]) | Plant response rating, Cocklebur (cocklebur; [7]) | Plant response rating, Rape (rape; [7]) | Crabgrass plant response rating (crabgrass; [5]) | Blackgrass plant response rating (0 to 10 scale) (blackgrass; Preemergence, Rate 250 g/ha)
2: B. signalgrass plant response rating (surinam grass; [5]) | B. signalgrass plant response rating (0 to 10 scale, 0 is no effect, 10 is complete control) (surinam grass; Preemergence, Rate 250 g/ha) | Plant response rating, Sugarbeets (sugar beet; [7]) | Plant response rating, Soybean (soybean; [1]) | Soybean plant response rating (soybean; [2]) | Plant response rating, Soybean (soybean; [3])
9: Giant foxtail plant response rating (giant foxtail; [5])
1: Plant response rating, Morningglory (morningglory; [1]) | Morningglory plant response rating (morningglory; [2])
6: Plant response rating, Morningglory (morningglory; [3]) | Morningglory plant response rating (morningglory; [4]) | Blackgrass plant response rating (blackgrass; [4]) | Blackgrass plant response rating (blackgrass; [6])
4: Plant response rating, Redroot pigweed (pigweed; [7]) | Giant foxtail plant response rating (giant foxtail; [4]) | Soybean plant response rating (soybean; [4])
8: Plant response rating, Crabgrass (crabgrass; [6]) | Plant response rating, Crabgrass (crabgrass; [7]) | Plant response rating, Bedstraw (bedstraw; Rate 1000 g/ha, scale 0 to 10 (0 no effect, 10 complete control)) | Plant response rating, Blackgrass (blackgrass; [7])
10: Plant response rating, Giant foxtail (giant foxtail; [6]) | Plant response rating, Giant foxtail (giant foxtail; [7])
